Values belong to the compound of their own block, whether it stands above or below them.
Columns and labels:
[1] = tested on: mice; assay: Acute toxicity (dead/treated animals); assay type: in vivo
Experimental: The SMA inhibiting effect and the acute toxicity data (dead/treated animals, shown in brackets) of the new compounds are provided in Table II.
The experiments were performed according to the method of S.Irwin [Psychopharm. 13, 222 (1968)].

[2] = tested on: stereotypy induced by amphetamine; assay: Potentiation of the stereotypy induced by amphetamine, scale of Constall and Naylor; assay type: in vivo; conditions: ip; 10 mg/kg i.p. + amphetamine 3 mg/kg s.c.
Experimental: The potentiation of the stereotypy evoked by amphetamine was evaluated according to the scale of Constall and Naylor (Eur. J. Pharmacol. 18, 95, 1972).
*10 mg/kg i.p. + amphetamine 3 mg/kg s.c.

[3] = tested on: convulsions evoked by pentetrazole; assay: Inhibition of pentetrazole-evoked convulsions, method of Goodmann et al.; assay type: in vivo; conditions: Mus musculus, ip; mice, 30 mg/kg i.p.; 50 mg/kg i.v. pentetrazole
Experimental: The compounds of general formula (I) exert a moderate anticonvulsive effect, too. This latter was measured in mice applying the method of Goodmann et al.[J. Pharmacol. Exp. Ther. 106, 319, (1952)]. The convulsions evoked by 50 mg/kg i.v. of pentetrazole were inhibited by 30-40% and 50-55% after the i.p. administration of 30 mg/kg of the compounds of Examples 10., 11., 13., 19., 28., 35, 40., and Examples 34 and 38, respectively.

[4] = tested on: hippocampal CA1 field potentials (glutamate acting mainly through AMPA receptors); assay: Inhibition of CA1 field potentials in hippocampal slices (glutamatergic transmission), method of Tarnawa et al.; parameters: species or system rat; conditions: for Inhibition (%) 30 minutes after drug administration / Inhibition (%) 60 minutes after drug administration / Inhibition (%) after 30 minutes wash-out / efficacy compared to GYKI-52466: 50 μM; for Inhibition (%) after 30 minutes wash-out: *p < 0.05 compared to the 60 minutes value; for duration of action compared to known molecules / GYKI-52466 / efficacy compared to GYKI-52466: hippocampal slices; for effect of 30 minutes wash-out on the inhibition: wash-out lasting 30 minutes vs preceding 60 minutes incubation
Experimental: The effects of the compounds on the glutamatergic transmission were studied in hippocampal slices applying the method of Tarnawa et al. (Acta Physiol. Hung., 79, 163, 1992). 400 μm thick slices were prepared from rat brain and maintained in a chamber of interface type under simulated […] conditions. The Schaffer collaterals were stimulated and field potentials were recorded from the pyramidal cells of the hippocampal CA1 region. The neurotransmitter involved in this process is glutamate acting mainly through AMPA receptors.

[5] = tested on: hippocampal CA1 field potentials (glutamate acting mainly through AMPA receptors); conditions: known AMPA antagonist; cited from earlier work
[6] = background statement; cited from earlier work

Structure (SMILES): COc1ccc(/C=C/C2=NNC(C)Cc3cc4c(cc32)OCO4)cc1OC (stereo not drawn) [Example 1, 1-(3,4-Dimethoxystyryl)-4-methyl-7,8-methylenedioxy-3,4-dihydro-5H-2,3-benzodiazepine]
acute toxicity (dead/treated animals) ([1]; i.p. 300 mg/kg): 0/5
acute toxicity (dead/treated animals) ([1]; p.o. 1000 mg/kg): 0/5

Structure (SMILES): COc1cc2c(cc1OC)C(/C=C/c1ccc3c(c1)OCO3)=NNC(C)C2 (stereo not drawn) [Example 3]
acute toxicity (dead/treated animals) ([1]; i.p. 300 mg/kg): 0/5
acute toxicity (dead/treated animals) ([1]; p.o. 1000 mg/kg): 0/5

Structure (SMILES): COc1cc2c(cc1OC)C(/C=C/c1ccc(N(C)C)cc1)=NNC(C)C2 (stereo not drawn) [Example 7]
change in vivo at 10 mg/kg [2]: 90.2%

Structure (SMILES): CC1Cc2cc3c(cc2C(/C=C/c2ccc4c(c2)OCO4)=NN1)OCO3 (stereo not drawn) [Example 8]
change in vivo at 10 mg/kg [2]: 113%

Structure (SMILES): CC1Cc2cc3c(cc2C(/C=C/c2ccc(N(C)C)cc2)=NN1)OCO3 (stereo not drawn) [Example 9]
change in vivo at 10 mg/kg [2]: 141%

Structure (SMILES): CCOc1cc2c(cc1OCC)C(/C=C/c1ccc(N(C)C)cc1)=NNC(C)C2 (stereo not drawn) [Example 10]
change in vivo at 10 mg/kg [2]: 176%
inhibition in vivo at 30 mg/kg [3]: 30 to 40%

Structure (SMILES): COc1cc2c(cc1OC)C(/C=C/c1cccc(O)c1)=NNC(C)C2 (stereo not drawn) [Example 11]
inhibition in vivo at 30 mg/kg [3]: 30 to 40%

Structure (SMILES): COc1ccc(/C=C/C2=NNC(C)Cc3cc4c(cc32)OCO4)cc1C(C)C (stereo not drawn) [Example 13]
inhibition in vivo at 30 mg/kg [3]: 30 to 40%

Structure (SMILES): COc1cc2c(cc1OC)C(/C=C/c1ccccc1Br)=NNC(C)C2 (stereo not drawn) [Example 14]
change in vivo at 10 mg/kg [2]: 113%

Structure (SMILES): COc1ccc(/C=C/C2=NN(C(C)=O)C(C)Cc3cc4c(cc32)OCO4)c(OC)c1 (stereo not drawn) [Example 19, 1-(2,4-Dimethoxystyryl)-3-acetyl-4-methyl-7,8-methylenedioxy-3,4-dihydro-5H-2,3-benzodiazepine]
inhibition in vivo at 30 mg/kg [3]: 30 to 40%

Structure (SMILES): COc1cc2c(cc1OC)C(/C=C/c1ccccc1)=NN(C(C)=O)C(C)C2 (stereo not drawn) [Example 20, 1-Styryl-3-acetyl-4-methyl-7,8-dimethoxy-3,4-dihydro-5H-2,3-benzodiazepine]
acute toxicity (dead/treated animals) ([1]; i.p. 300 mg/kg): 1/5

Inhibition (%) 30 minutes after drug administration [4]: 16.1 ± 13.4%
Inhibition (%) 60 minutes after drug administration [4]: 33.7 ± 7.60%
Inhibition (%) after 30 minutes wash-out [4]: 61.1 ± 4.56%
Structure (SMILES): COc1ccc(/C=C/C2=NN(C(C)=O)C(C)Cc3cc(OC)c(OC)cc32)c(OC)c1 (stereo not drawn) [Example 21, 1-(2,4-Dimethoxystyryl)-3-acetyl-4-methyl-7,8-dimethoxy-3,4-dihydro-5H-2,3-benzodiazepine]

Structure (SMILES): COc1cc2c(cc1OC)C(/C=C/c1cccc(OC)c1OC)=NN(C(C)=O)C(C)C2 (stereo not drawn) [Example 22, 1-(2,3-Dimethoxystyryl)-3-acetyl-4-methyl-7,8-dimethoxy-3,4-dihydro-5H-2,3-benzodiazepine]
Inhibition (%) 30 minutes after drug administration [4]: 4.7 ± 0.84%
Inhibition (%) 60 minutes after drug administration [4]: 37.0 ± 9.19%
Inhibition (%) after 30 minutes wash-out [4]: 74.3 ± 11.53%
acute toxicity (dead/treated animals) ([1]; i.p. 300 mg/kg): 1/5

Structure (SMILES): COc1cccc(/C=C/C2=NN(C(C)=O)C(C)Cc3cc4c(cc32)OCO4)c1OC (stereo not drawn) [Example 23, 1-(2,3-Dimethoxystyryl)-3-acetyl-4-methyl-7,8-methylenedioxy-3,4-dihydro-5H-2,3-benzodiazepine]
acute toxicity (dead/treated animals) ([1]; i.p. 300 mg/kg): 0/5
acute toxicity (dead/treated animals) ([1]; p.o. 1000 mg/kg): 0/5

Structure (SMILES): CCC1c2cc(OC)c(OC)cc2C(/C=C/c2ccc([N+](=O)[O-])cc2)=NNC1C (stereo not drawn) [Example 26, 1-(4-Nitrostyryl)-4-methyl-5-ethyl-7,8-dimethoxy-3,4-dihydro-5H-2,3-benzodiazepine]
acute toxicity (dead/treated animals) ([1]; i.p. 300 mg/kg): 0/5
acute toxicity (dead/treated animals) ([1]; p.o. 1000 mg/kg): 0/5

Structure (SMILES): CC1Cc2cc3c(cc2C(/C=C/c2ccccc2)=NN1)OCO3 (stereo not drawn) [Example 27, 1-Styryl-4-methyl-7,8-methylenedioxy-3,4-dihydro-5H-2,3-benzodiazepine]
change in vivo at 10 mg/kg [2]: 183%
acute toxicity (dead/treated animals) ([1]; i.p. 300 mg/kg): 0/5

Structure (SMILES): COc1cc2c(cc1OC)C(/C=C/c1ccc(Cl)c(Cl)c1)=NNC(C)C2 (stereo not drawn) [Example 28, 1-(3,4-Dichlorostyryl)-4-methyl-7,8-dimethoxy-3,4-dihydro-5H-2,3-benzodiazepine]
change in vivo at 10 mg/kg [2]: 92.5%
inhibition in vivo at 30 mg/kg [3]: 30 to 40%

Structure (SMILES): COc1cc2c(cc1OC)C(/C=C/c1ccc([N+](=O)[O-])cc1)=NN(C(C)=O)C(C)C2 (stereo not drawn) [Example 30, 1-(4-Nitrostyryl)-3-acetyl-4-methyl-7,8-dimethoxy-3,4-dihydro-5H-2,3-benzodiazepine]
change in vivo at 10 mg/kg [2]: 100%

Structure (SMILES): COc1cc2c(cc1OC)C(/C=C/c1ccc(N)cc1)=NNC(C)C2 (stereo not drawn) [Example 33, 1-(4-Aminostyryl)-4-methyl-7,8-dimethoxy-3,4-dihydro-5H-2,3-benzodiazepine]
change in vivo at 10 mg/kg [2]: 202%

Structure (SMILES): CC1Cc2cc3c(cc2C(/C=C/c2ccc(N)cc2)=NN1)OCO3 (stereo not drawn) [Example 34, 1-(4-Aminostyryl)-4-methyl-7,8-methylenedioxy-3,4-dihydro-5H-2,3-benzodiazepine]
change in vivo at 10 mg/kg [2]: 92%
inhibition in vivo at 30 mg/kg [3]: 50 to 55%

Structure (SMILES): CCC1c2cc(OC)c(OC)cc2C(/C=C/c2ccc(N)cc2)=NNC1C (stereo not drawn) [Example 35, 1-(4-Aminostyryl)-4-methyl-5-ethyl-7,8-dimethoxy-3,4-dihydro-5H-2,3-benzodiazepine]
inhibition in vivo at 30 mg/kg [3]: 30 to 40%

Structure (SMILES): CCC1c2cc(OC)c(OC)cc2C(/C=C/c2ccc(N)cc2)=NN(C(C)=O)C1C (stereo not drawn) [Example 38, 1-(4-Aminostyryl)-3-acetyl-4-methyl-5-ethyl-7,8-dimethoxy-3,4-dihydro-5H-2,3-benzodiazepine]
inhibition in vivo at 30 mg/kg [3]: 50 to 55%

Structure (SMILES): COc1cc2c(cc1OC)C(/C=C/c1ccc(NC(C)=O)cc1)=NN(C(C)=O)C(C)C2 (stereo not drawn) [Example 39, 1-(4-Acetylaminostyryl)-3-acetyl-4-methyl-7,8-dimethoxy-3,4-dihydro-5H-2,3-benzodiazepine]
change in vivo at 10 mg/kg [2]: 113%
Inhibition (%) 30 minutes after drug administration [4]: 85.3 ± 15.09%
Inhibition (%) 60 minutes after drug administration [4]: 100 ± 0%
Inhibition (%) after 30 minutes wash-out [4]: 97.5 ± 0.98%
duration of action compared to known molecules / GYKI-52466 [4]: surpass that of GYKI-52466
efficacy compared to GYKI-52466 [4]: at least equal efficacy to the molecule GYKI-52466
effect of 30 minutes wash-out on the inhibition [4]: not able to diminish the effect

Structure (SMILES): CC(=O)Nc1ccc(/C=C/C2=NN(C(C)=O)C(C)Cc3cc4c(cc32)OCO4)cc1 (stereo not drawn) [Example 40, 1-(4-Acetylaminostyryl)-3-acetyl-4-methyl-7,8-methylenedioxy-3,4-dihydro-5H-2,3-benzodiazepine]
change in vivo at 10 mg/kg [2]: 99.7%
inhibition in vivo at 30 mg/kg [3]: 30 to 40%
Inhibition (%) 30 minutes after drug administration [4]: 14.8 ± 7.10%
Inhibition (%) 60 minutes after drug administration [4]: 25.8 ± 3.04%
Inhibition (%) after 30 minutes wash-out [4]: 35.4 ± 2.67%

Structure (SMILES): CCC1c2cc3c(cc2C(/C=C/c2ccc(NC(C)=O)cc2)=NN(C(C)=O)C1C)OCO3 (stereo not drawn) [Example 41, 1-(4-Acetylaminostyryl)-3-acetyl-4-methyl-5-ethyl-7,8-methylenedioxy-3,4-dihydro-5H-2,3-benzodiazepine]
Inhibition (%) 30 minutes after drug administration [4]: 79.5 ± 10.10%
Inhibition (%) 60 minutes after drug administration [4]: 100 ± 0%
Inhibition (%) after 30 minutes wash-out [4]: 98.6 ± 2.67%
duration of action compared to known molecules / GYKI-52466 [4]: surpass that of GYKI-52466
efficacy compared to GYKI-52466 [4]: at least equal efficacy to the molecule GYKI-52466
effect of 30 minutes wash-out on the inhibition [4]: not able to diminish the effect
acute toxicity (dead/treated animals) ([1]; i.p. 300 mg/kg): 0/5
acute toxicity (dead/treated animals) ([1]; p.o. 1000 mg/kg): 0/5

Structure (SMILES): CC1=NN=C(c2ccc(N)cc2)c2cc3c(cc2C1)OCO3 [GYKI-52466, 1-(4-aminophenyl)-4-methyl-7,8-methylenedioxy-5H-2,3-benzodiazepine, reference compound]
inhibition of the CA1 field potentials (in words) [5]: concentration-dependently inhibits the CA1 field potentials
Inhibition (%) 30 minutes after drug administration [4]: 94.5 ± 2.07%
Inhibition (%) 60 minutes after drug administration [4]: 100 ± 0%
Inhibition (%) after 30 minutes wash-out [4]: 84.6 ± 7.37%
effect of 30 minutes wash-out on the inhibition [4]: significantly smaller than that observed after the preceding incubation period
duration of action (in words) [6]: rather short
known pharmacological activity (in words) [6]: non-NMDA-glutamic acid antagonist having spasmolytic and antiischemic activities

Structure (SMILES): COc1cc2c(cc1OC)C(c1cccc(Cl)c1)=NN=C(C)C2 [Girisopam, 1-(3-chlorophenyl)-4-methyl-7,8-dimethoxy-5H-2,3-benzodiazepine, reference compound]
acute toxicity (dead/treated animals) ([1]; i.p. 300 mg/kg): 0/6
